Data from patent EP0241395A2, “Sweeteners derived from n-phenylguanidinoacetic and n-phenylethananamidinacetic acids, and compositions containing such sweeteners” (UNIVERSITE CLAUDE BERNARD - LYON 1, priority 1986, dated 1987).

Test system: groupe de huit goûteurs expérimentés
Assay: Sweetening power judged by a panel of eight experienced tasters against a sucrose reference solution
Format: in vivo
Conditions: weight basis; for Pouvoir édulcorant: Table II, relative to a 2 % sucrose solution; for pouvoir édulcorant, sur une base pondérale: approximate
Source text: Le pouvoir édulcorant des composés préparés dans les exemples suivants a été évalué par un groupe de huit goûteurs expérimentés. Pour cela, les composés, en solution aqueuse à des concentrations variables, sont comparés, sur le plan gustatif, à une solution témoin de saccharose à 2 % et dans certains cas à 5 % et 10 %, c'est-à-dire à des concentrations correspondant à celles utilisées lors d'un usage courant. Le pouvoir sucrant des édulcorants de synthèse varie en effet suivant la concentration de la solution de saccharose utilisée comme référence. Le pouvoir édulcorant du composé testé par rapport au saccharose correspond alors au rapport pondéral qui existe entre le composé et le saccharose à égale intensité édulcorante, c'est-à-dire quand les saveurs sucrées de la solution du composé testé et de la solution témoin de saccharose sont considérées, par une majorité de goûteurs, avoir la même intensité édulcorante.

[1] = by comparison with a 2 % sucrose solution

SMILES | Pouvoir édulcorant | pouvoir édulcorant, sur une base pondérale [1] | pouvoir édulcorant, sur une base pondérale (by comparison with a 5 % sucrose solution) | pouvoir édulcorant, sur une base pondérale (by comparison with a 10 % sucrose solution)
COC(=O)c1ccc(N=C(NCC(=O)O)N[C@@H](C)c2ccccc2)cc1 [Exemple 16, acide N-[N-(S)-α-méthylbenzylamino (4-méthoxycarbonylphénylimino)méthyl]-2-aminoéthanoïque] | 700 | ~700 fois celui du saccharose |  | 
N#Cc1ccc(N=C(NCC(=O)O)Nc2ccc3c(c2)OCO3)cc1 [Exemple 75, acide N-[N-(3,4-méthylènedioxyphényl)amino(4-cyanophénylimino)méthyl]-2-aminoéthanoïque] | 5000 | ~5 000 fois celui du saccharose |  | 
N#Cc1cccc(N=C(NCC(=O)O)NCC2CCCCC2)c1 [Exemple 56, acide N-[N-cyclohexylméthylamino (3-cyanophénylimino)méthyl]-2-aminoéthanoïque] | 5000 | ~5 000 fois celui du saccharose |  | 
Cc1cccc(NC(=Nc2ccc(C#N)cc2)NCC(=O)O)c1 [Exemple 65, acide N-[N-(3-méthylphényl)amino(4-cyanophénylimino)méthyl]-2-aminoéthanoïque] | 9000 | ~9 000 fois celui du saccharose |  | 
Cc1cc(C)cc(N=C(NCC(=O)O)N[C@@H](C)c2ccccc2)c1 [Exemple 25, acide N-[N-(S)-α-méthylbenzylamino (3,5-diméthylphénylimino)méthyl]-2-aminoéthanoïque] | 30000 | ~30 000 fois celui du saccharose |  | 
CC(C)CCNC(=Nc1ccc(C#N)cc1)NCC(=O)O [Exemple 37, acide N-[N-(3-méthylbutyl)amino (4-cyanophénylimino)méthyl)-2-aminoéthanoïque] | 200 | ~200 fois celui du saccharose |  | 
Cc1cc(C)cc(N=C(NCC(=O)O)N(C)Cc2ccccc2)c1 [Exemple 88, acide N-[N-méthyl-N-benzylamino (3,5-diméthylphénylimino)méthyl]-2-aminoéthanoïque] | 5000 | ~5 000 fois celui du saccharose |  | 
Cc1ccccc1N=C(NCC(=O)O)Nc1ccc(C#N)cc1 [Exemple 64, acide N-[N-(2-méthylphényl)amino (4-cyanophénylimino)méthyl]-2-aminoéthanoïque] | 5000 | ~5 000 fois celui du saccharose |  | 
Cc1cccc(N=C(NCC(=O)O)N[C@@H](C)c2ccccc2)c1 [Exemple 4, acide N-[N (S)-α-méthylbenzylamino (3-méthylphénylimino)méthyl]-2-aminoéthanoïque] | 12000 | ~12 000 fois celui du saccharose |  | 
CSc1ccc(N=C(NCC(=O)O)N[C@@H](C)c2ccccc2)cc1 [Exemple 21, acide N-[N-(S)-a-méthylbenzylamino (4-méthylmercaptophénylimino)méthyl)-2-aminoéthanoïque] | 1200 | ~1200 times sucrose |  | 
CC(C)(C)CC(C)(C)NC(=Nc1ccc(C#N)cc1)NCC(=O)O [Exemple 39, acide N-[N-(1,1,3,3-tétraméthylbut-yl)amino(4-cyanophénylimino)méthyl]-2-aminoéthanoïque] | 1 200 | ~1 200 fois celui du saccharose |  | 
N#Cc1ccc(N=C(NCC(=O)O)NN2CCOCC2)cc1 [Exemple 77, acide N-[N-morpholinoamino(4-cyano-phénylimino)méthyl]-2-aminoéthanoïque] | 950 | ~950 fois celui du saccharose |  | 
O=C(O)CNC(=Nc1ccccc1)NCC1CCCCC1 [Exemple 55, acide N-[N-cyclohexylméthylamino (phénylimino)méthyl]-2-aminoéthanoïque] | 3 300 | ~3 300 fois celui du saccharose | ~2 500 fois celui du saccharose | ~2 000 fois celui du saccharose
